Assays:
[1] = test system: Cavia porcellus; assay: Compound was tested for antigen induced airway obstruction in guinea pig at 1.0 hr upon peroral administration; assay type: functional; conditions: po
[2] = test system: U-937; assay: Compound was evaluated for influx of calcium mobilization in human U937 cells; assay type: functional, cell-based
[3] = test system: Cavia porcellus; assay: Compound was tested for antigen induced airway obstruction in guinea pig at 2.0 hr upon peroral administration; assay type: functional; conditions: po

IC50 [2] [nM] | Structure (SMILES) | ED50 [1] [mg/kg] | ED50 [3] [mg/kg]
1 | O=C(Nc1cccc2c(=O)cc(-c3nnn[nH]3)oc12)c1ccc(OCCCCc2ccccc2)cc1 | 1.5 | –
310 | O=C(O)c1cccc(C[C@@H]2COc3ccc(OCc4nc5cc(F)ccc5s4)cc3[C@@H]2O)c1 | – | 10.2
8 | C[C@H]1Oc2ccc(OCc3nc4cc(F)ccc4s3)cc2[C@H](O)[C@@H]1Cc1cccc(NS(=O)(=O)C(F)(F)F)c1 (stereo in doubt; (+)-26) | 0.5 | –
– | COc1cc(C(=O)NS(=O)(=O)c2ccccc2C)ccc1Cc1cn(C)c2ccc(NC(=O)OC3CCCC3)cc12 [ZAFIRLUKAST] | – | 0.9

— ChEMBL document CHEMBL1131366, “Development of new chromanol antagonists of leukotriene D4” (Bioorg Med Chem Lett, 1998)
